Assay results as given in patent US8431593B2, “Heteroaryl amide derivatives” (H. Lundbeck A/S, priority 2006, dated 2013).
Like-named read-outs stand apart in the source and are kept apart here. Values belong to the compound of their own block, whether it stands above or below them.

Target: T1, P2X7 receptor (Homo sapiens, UniProt Q99572)
T1 construct: host or cells: SH-SY5Y
T1 sequence (Q99572 1-595): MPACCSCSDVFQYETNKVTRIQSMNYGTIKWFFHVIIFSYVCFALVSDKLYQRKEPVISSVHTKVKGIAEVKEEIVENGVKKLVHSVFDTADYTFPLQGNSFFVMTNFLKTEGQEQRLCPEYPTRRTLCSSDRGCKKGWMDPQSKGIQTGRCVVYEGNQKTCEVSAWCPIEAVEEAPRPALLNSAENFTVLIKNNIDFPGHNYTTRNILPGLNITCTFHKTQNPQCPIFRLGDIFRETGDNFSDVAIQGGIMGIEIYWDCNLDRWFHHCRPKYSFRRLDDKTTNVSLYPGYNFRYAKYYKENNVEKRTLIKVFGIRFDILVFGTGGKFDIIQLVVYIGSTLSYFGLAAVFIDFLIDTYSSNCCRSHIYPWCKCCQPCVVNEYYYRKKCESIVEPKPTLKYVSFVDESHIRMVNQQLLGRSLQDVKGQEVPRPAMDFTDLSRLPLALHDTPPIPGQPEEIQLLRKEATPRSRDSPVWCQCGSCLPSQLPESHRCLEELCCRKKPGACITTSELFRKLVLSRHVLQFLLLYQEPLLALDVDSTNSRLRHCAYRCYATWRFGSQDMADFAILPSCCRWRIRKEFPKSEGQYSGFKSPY
Experiment: P2X7 calcium mobilization assay, high throughput, antagonist activity (Example 4A)
Format: cell-based
How it was run: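 FLIPR^TETRA calcium read-out: maximum RFU per well minus average no-agonist control, with agonist wells giving the average positive maximum. Cells seeded at 100,000/well one day ahead, dye-loaded 1 h, rinsed, then exposed to compound for 1 h at room temperature.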

[1] = 50% decrease in the fluorescence response of cells exposed to 80 μM of 2′(3′)-O-(4-benzoyl-benzoyl)adenosine 5′-triphosphate, Example 4A, read-out: IC50
[2] = 50% decrease in the fluorescence response of cells exposed to 80 μM 2′(3′)-O-(4-benzoyl-benzoyl)adenosine 5′-triphosphate, Example 4A, read-out: IC50
[3] = SH-SY5Y cells, 50% decrease in fluorescence response to 80 μM BzATP, read-out: IC50
[4] = 50% decrease in the fluorescence response of cells exposed to 80 μM of 2′(3′)-O-(4-benzoyl-benzoyl)adenosine 5′-triphosphate, determined as in Example 4A, read-out: IC50
[5] = fluorescence response of cells exposed to 80 μM 2′(3′)-O-(4-benzoyl-benzoyl)adenosine 5′-triphosphate, Example 4A, read-out: IC50

SMILES: CC1(C)C2CC[C@H](CNC(=O)c3cccc4nc(C(=O)N5CCC[C@@H](N)C5)cn34)C1C2 (relative stereo) [Compound 548, rel-2-{[(3R)-3-aminopiperidin-1-yl]carbonyl}-N-{[(2S)-6,6-dimethylbicyclo[3.1.1]hept-2-yl]methyl}imidazo[1,2-a]pyridine-5-carboxamide]
IC50 [2]: < 2 µM

SMILES: CCOC(=O)c1cn2c(NC(=O)CC34CC5CC(CC(C5)C3)C4)cccc2n1 [Compound 143, ethyl 5-[(adamantan-1-ylacetyl)amino]imidazo[1,2-a]pyridine-2-carboxylate]
IC50 [3]: < 2 µM

SMILES: CC1(C)[C@H]2CC[C@@H](CNC(=O)c3cccc4nc(C(=O)NCC5CC5)cn34)[C@@H]1C2 [Compound 497, 2-N-(cyclopropylmethyl)-5-N-{[(1S,2R,5S)-6,6-dimethylbicyclo[3.1.1]hept-2-yl]methyl}imidazo[1,2-a]pyridine-2,5-dicarboxamide]
IC50 [2]: < 2 µM

SMILES: CCCN(C)C(=O)Cc1cn2c(C(=O)NCC(CC(C)C)c3ccccc3)cccc2n1 (stereo not shown) [Compound 246, N-(4-methyl-2-phenylpentyl)-2-{2-[methyl(propyl)amino]-2-oxoethyl)imidazo[1,2-a]pyridine-5-carboxamide]
IC50 [5]: < 2 µM

SMILES: CC1CNCCN1C(=O)Cc1cn2c(C(=O)NC[C@@H]3CC[C@@H]4C[C@H]3C4(C)C)cccc2n1 (stereo partly drawn) [Compound 556, N-{[(1R,2R,5R)-6,6-dimethylbicyclo[3.1.1]hept-2-yl]methyl}-2-[2-(2-methylpiperazin-1-yl)-2-oxoethyl]imidazo[1,2-a]pyridine-5-carboxamide]
IC50 [2]: < 2 µM

SMILES: NCCNCc1cn2c(C(=O)NCC34CC5CC(CC(C5)C3)C4)cccc2n1 [Compound 122, N-(adamantan-1-ylmethyl)-2-{[(2-aminoethyl)amino]methyl}imi-dazo[1,2-a]pyridine-5-carboxamide]
IC50: < 2 µM

SMILES: COC1CCN(C(=O)c2cn3c(NC(=O)CC45CC6CC(CC(C6)C4)C5)cccc3n2)CC1 [Compound 385, 2-adamantan-1-yl-N-{2-[(4-methoxypiperidin-1-yl)carbonyl]imidazo[1,2-a]pyridin-5-yl}acetamide]
IC50 [5]: < 2 µM

SMILES: NCC1CCCN(C(=O)c2cn3c(C(=O)NCC45CC6CC(CC(C6)C4)C5)cccc3n2)C1 (stereo not shown) [Compound 631, N-(adamantan-1-ylmethyl)-2-{[3-(aminomethyl)piperidin-1-yl]carbonyl} imidazo[1,2-a]pyridine-5-carboxamide]
IC50 [1]: < 2 µM

SMILES: NC(=O)C1CCN(C(=O)c2cn3c(C(=O)NCC45CC6CC(CC(C6)C4)C5)cccc3n2)CC1 [Compound 102, N-(adamantan-1-ylmethyl)-2-[(4-carbamoylpiperidin-1-yl)carbonyl]imidazo[1,2-a]pyridine-5-carboxamide]
IC50 [3]: < 2 µM

SMILES: O=C1CN(C(=O)Cc2cn3c(C(=O)NCC45CC6CC(CC(C6)C4)C5)cccc3n2)CCN1 [Compound 46, N-(adamantan-1-ylmethyl)-2-[2-oxo-2-(3-oxopiperazin-1-yl)ethyl]imidazo[1,2-a]pyridine-5-carboxamide]
IC50 [3]: < 2 µM

SMILES: CN(CCNS(C)(=O)=O)C(=O)c1cn2c(NC(=O)CC34CC5CC(CC(C5)C3)C4)cccc2n1 [Compound 404, 5-[(adamantan-1-ylacetyl)amino]-N-methyl-N-{2-[(methylsulfonyl)amino]ethyl} imidazo[1,2-a] pyridine-2-carboxamide]
IC50 [5]: < 2 µM

SMILES: Cc1cc(-c2cn3c(C(=O)NCC45CC6CC(CC(C6)C4)C5)cccc3n2)n[nH]1 [Compound 284, N-(adamantan-1-ylmethyl)-2-(5-methyl-1H-pyrazol-3-yl)imidazo[1,2-a]pyridine-5-carboxamide]
IC50 [5]: < 2 µM

Second part, the compound after the results:

IC50 [1]: < 2 µM
SMILES: CCOC(=O)C(CC(=O)N(CC)CC)c1cn2c(C(=O)NCC34CC5CC(CC(C5)C3)C4)cccc2n1 (stereo not shown) [Compound 810, ethyl 2-{5-[(adamantan-1-ylmethyl)carbamoyl]imidazo[1,2-a]pyridin-2-yl}-4-(diethylamino)-4-oxobutanoate]

IC50 [1]: < 2 µM
SMILES: O=C(Nc1nnn[nH]1)c1cn2c(C(=O)NCC34CC5CC(CC(C5)C3)C4)cccc2n1 [Compound 815, 5-N-(adamantan-1-ylmethyl)-2-N-1H-tetrazol-5-ylmidazo[1,2-a] pyridine-2,5-dicarboxamide]

IC50 [4]: < 2 µM
SMILES: CCOC(=O)C(Cc1cccc(OC)c1)c1cn2c(C(=O)NCC34CC5CC(CC(C5)C3)C4)cccc2n1 (stereo not shown) [Compound 842, ethyl 2-{5-[(adamantan-1-ylmethyl)carbamoyl]imidazo[1,2-a]pyridin-2-yl}-3-(3-methoxyphenyl) propanoate]

IC50 [4]: < 2 µM
SMILES: CCOC(=O)C1(c2cn3c(C(=O)NCC45CC6CC(CC(C6)C4)C5)cccc3n2)CCCC1 [Compound 833, ethyl 1-{5-[(adamantan-1-ylmethyl)carbamoyl]imidazo[1,2-a]pyridin-2-yl} cyclopentane-carboxylate]

IC50 [1]: < 2 µM
SMILES: COCCN(C(=O)c1cn2c(C(=O)NCC34CC5CC(CC(C5)C3)C4)cccc2n1)C1CCN(C)CC1 [Compound 681, 5-N-(adamantan-1-ylmethyl)-2-N-(2-methoxyethyl)-2-N-(1-methylpiperidin-4-yl)imidazo[1,2-a]pyridine-2,5-dicarboxamide]

IC50 [4]: < 2 µM
SMILES: CCCC(CNC(=O)c1cccc2nc(CC(=O)N[C@@H]3CCCN(C(=O)OC(C)(C)C)C3)cn12)c1ccc(Cl)cc1 (stereo partly drawn) [Compound 924, tert-butyl (3R)-3-{[(5-{[2-(4-chlorophenyl)pentyl]carbamoyl}imidazo [1,2-a]pyridin-2-yl)acetyl]amino} piperidine-1-carboxylate]

IC50 [1]: < 2 µM
SMILES: O=C(O)c1nnnn1Cc1cn2c(C(=O)NCC34CC5CC(CC(C5)C3)C4)cccc2n1 [Compound 737, 1-({5-[(adamantan-1-ylmethyl)carbamoyl]imidazo[1,2-a]pyridin-2-yl}methyl)-1H-tetrazole-5-carboxylic acid]

IC50 [1]: < 2 µM
SMILES: CC(C)(C)OC(=O)N[C@@H]1CCN(Cc2cn3c(C(=O)NCC(CC4CCCC4)c4ccccc4)cccc3n2)C1 (stereo in doubt) [Compound 784, tert-butyl [1-({5-[(3-cyclopentyl-2-phenylpropyl)carbamoyl]imidazo[1,2-a]pyridin-2-yl}methyl)pyrrolidin-3-yl]carbamate]

IC50 [1]: < 2 µM
SMILES: CCOC(=O)C(Cc1cn2c(C(=O)NCC34CC5CC(CC(C5)C3)C4)cccc2n1)c1cccnc1 (stereo not shown) [Compound 759, ethyl 3-{5-[(adamantan-1-ylmethyl)carbamoyl]imidazo[1,2-a]pyridin-2-yl}-2-pyridin-3-ylpropanoate]

IC50 [4]: < 2 µM
SMILES: O=C(NCC1(c2ccc(Cl)cc2)CCCCC1)c1cccc2nc(CC(Cc3ccccc3)C(=O)O)cn12 (stereo not shown) [Compound 1013, 2-benzyl-3-[5-({[1-(4-chlorophenyl)cyclohexyl]methyl}carbamoyl)imidazo[1,2-a]pyridin-2-yl] propanoic acid]

IC50 [4]: < 2 µM
SMILES: CC(C)CC(CNC(=O)c1cccc2nc(CCC(=O)O)cn12)c1ccc(C(F)(F)F)cc1 (stereo not shown) [Compound 986, 3-[5-({4-methyl-2-[4-(trifluoromethyl)phenyl]pentyl}carbamoyl)imidazo[1,2-a]pyridin-2-yl] propanoic acid]

IC50 [1]: < 2 µM
SMILES: CCOC(=O)C(Cc1cn2c(C(=O)NCC34CC5CC(CC(C5)C3)C4)cccc2n1)C(=O)OC(C)(C)C (stereo not shown) [Compound 728, tert-butyl ethyl ({5-[(adamantan-1-ylmethyl)carbamoyl]imidazo[1,2-a]pyridin-2-yl}methyl)malonate]

IC50 [1]: < 2 µM
SMILES: CN(C)[C@@H]1CCN(C(=O)CCc2cn3c(C(=O)NCC45CC6CC(CC(C6)C4)C5)cccc3n2)C1 [Compound 753, N-(adamantan-1-ylmethyl)-2-{3-[(3R)-3-(dimethylamino)pyrrolidin-1-yl]-3-oxopropyl}imidazo [1,2-a)pyridine-5-carboxamide]

IC50 [4]: < 2 µM
SMILES: N[C@@H]1CCN(Cc2cn3c(C(=O)NCC4(c5ccc(Cl)cc5)CCOCC4)cccc3n2)C1 [Compound 910, 2-{[(3R)-3-aminopyrrolidin-1-yl]methyl}-N-{[4-(4-chlorophenyl)tetrahydro-2H-pyran-4-yl]methyl} imidazo[1,2-a] pyridine-5-carboxamide]

IC50 [1]: < 2 µM
SMILES: COCc1ccc(CN(C)C(=O)c2cn3c(C(=O)NCC45CC6CC(CC(C6)C4)C5)cccc3n2)nc1 [Compound 710, 5-N-(adamantan-1-ylmethyl)-2-N-{[5-(methoxymethyl)pyridin-2-yl]methyl}-2-N-methylimidazo[1,2-a]pyridine-2,5-dicarboxamide]

IC50 [4]: < 2 µM
SMILES: O=C(NCC1(c2ccc(C(F)(F)F)cc2)CCCCC1)c1cccc2nc(Cn3nnc(CCO)n3)cn12 [Compound 920, 2-{[5-(2-hydroxyethyl)-2H-tetrazol-2-yl]methyl}-N-({1-[4-(trifluoromethyl)phenyl]cyclohexyl}methyl)imidazo [1,2-a]pyridine-5-carboxamide]
